Laboratory results published in patent US6716866B2, “Aryl-benzimidazole compounds having antiinfective activity” (GeneSoft Pharmaceuticals, Inc., priority 2001, dated 2004).

Tests used:
S. aureus ATCC 13709 = assay: NCCLS broth microdilution MIC, S. aureus ATCC 13709; assay type: cell-based; conditions: organism E = S. aureus ATCC 13709
Description: (§1) Compounds according to this invention were screened for their in vitro activities against selected species of bacteria and fungi. The minimal inhibition concentration (MIC) of these compounds was determined using the National Committee for Clinical Laboratory Standards (NCCLS) broth microdilution assay in microtiter plates, as set forth in: (1) the guidelines of the National Committee for Clinical Laboratory Standards (NCCLS) Document M7-A4 (NCCLS, 1997); (2) the guidelines of the National Committee for Clinical Laboratory Standards (NCCLS) Document M11-A4 (NCCLS, 1997); and (3) the guidelines and reference method of the National Committee for Clinical Laboratory Standards (NCCLS) Document M27-T (NCCLS, 1995). For antifungal essays, the method recommended in Murray, PR., 1995 Manual of Clinical Microbiology (ASM Press, Washington, D.C.), was employed.

E. coli ATCC 25922 = assay: NCCLS broth microdilution MIC, E. coli ATCC 25922; assay type: cell-based; conditions: organism C = E. coli ATCC 25922
Description: as §1

S. pneumoniae ATCC 49619 = assay: NCCLS broth microdilution MIC, S. pneumoniae ATCC 49619; assay type: cell-based; conditions: organism F = S. pneumoniae ATCC 49619
Description: as §1

E. faecalis ATCC 29212 = assay: NCCLS broth microdilution MIC, E. faecalis ATCC 29212; assay type: cell-based; conditions: organism D = E. faecalis ATCC 29212
Description: as §1

S. aureus ATCC 27660 = assay: MIC against drug-resistant bacteria, S. aureus ATCC 27660; assay type: cell-based; conditions: organism B = S. aureus ATCC 27660, methycillin resistant strain (MRSA)
Description: as §1
(§2) Further, compounds (I) are effective against drug-resistant bacteria, as evidenced by the data in Table 2 below:
(§3) ATCC 27660 and ATCC 33591 are methycillin resistant strains of S. aureus (MRSA's). ATCC 51559 is a vancomycin resistant strain of E. faecium (VRE). ATCC 12228 is a methycillin resistant strain of S. epidermis (MRSE). ATCC 51422 is a penicillin resistant strain of S. pneumoniae.

B. cereus ATCC 11778 = assay: NCCLS broth microdilution MIC, B. cereus ATCC 11778; assay type: cell-based; conditions: organism A = B. cereus ATCC 11778
Description: as §1

C. albicans ATCC 38247 = assay: NCCLS broth microdilution MIC (antifungal), C. albicans ATCC 38247; assay type: cell-based; conditions: organism B = C. albicans ATCC 38247
Description: as §1

E. faecium ATCC 51559 = assay: MIC against drug-resistant bacteria, E. faecium ATCC 51559; assay type: cell-based; conditions: organism A = E. faecium ATCC 51559, vancomycin resistant strain (VRE)
Description: as §1, §2, §3

S. epidermis ATCC 12228 = assay: MIC against drug-resistant bacteria, S. epidermis ATCC 12228; assay type: cell-based; conditions: organism D = S. epidermis ATCC 12228, methycillin resistant strain (MRSE)
Description: as §1, §2, §3

S. pneumoniae ATCC 51422 = assay: MIC against drug-resistant bacteria, S. pneumoniae ATCC 51422; assay type: cell-based; conditions: organism E = S. pneumoniae ATCC 51422, penicillin resistant strain
Description: as §1, §2, §3

S. aureus ATCC 33591 = assay: MIC against drug-resistant bacteria, S. aureus ATCC 33591; assay type: cell-based; conditions: organism C = S. aureus ATCC 33591, methycillin resistant strain (MRSA)
Description: as §1, §2, §3

S. aureus ATCC 29213 = assay: NCCLS broth microdilution MIC, S. aureus ATCC 29213; assay type: cell-based; conditions: organism G = S. aureus ATCC 29213
Description: as §1

DNA sequence ATTACT = assay: Quantitative DNase I footprint titration, site ATTACT; assay type: binding; conditions: DNase I footprinting, pH 7.0, 22° C.
Description: (§4) A number of compounds according to this invention were screened for their ability to bind to three DNA sites, using DNase I footprinting.
(§5) The target sites and their complements are identified in bold underline.
(§6) The resulting duplexes were ligated to the large pUC19 XbaI/Pstl restriction fragment. […] (Sambrook et al., ibid.)
(§7) The polyamides were allowed to equilbrate at 22° C. for 16 h.

DNA sequence ACTAGT = assay: Quantitative DNase I footprint titration, site ACTAGT; assay type: binding; conditions: DNase I footprinting, pH 7.0, 22° C.
Description: as §4, §5, §6, §7

DNA sequence AGTACT = assay: Quantitative DNase I footprint titration, site AGTACT; assay type: binding; conditions: DNase I footprinting, pH 7.0, 22° C.
Description: as §4, §5, §6, §7

DNA sequence ACTACT = assay: Quantitative DNase I footprint titration, site ACTACT; assay type: binding; conditions: DNase I footprinting, pH 7.0, 22° C.
Description: as §4, §5, §6, §7

DNA sequence AATACT = assay: Quantitative DNase I footprint titration, site AATACT; assay type: binding; conditions: DNase I footprinting, pH 7.0, 22° C.
Description: as §4, §5, §6, §7

Cn1cc(NC(=O)c2ccc3nc(-c4sccc4Cl)[nH]c3c2)cc1-c1nc2ccc(C(=O)NCCN3CCOCC3)cc2[nH]1 [Compound I-1]
+++ (MIC ≦4): Minimum Inhibitory Concentration (MIC) (S. aureus ATCC 13709) | Minimum Inhibitory Concentration (MIC) (S. pneumoniae ATCC 49619) | Minimum Inhibitory Concentration (MIC) (E. faecalis ATCC 29212) | Minimum Inhibitoty Concentration (MIC) (S. aureus ATCC 27660) | Minimum Inhibitory Concentration (MIC) (B. cereus ATCC 11778)
>32 µg/mL: Minimum Inhibitory Concentration (MIC) (E. coli ATCC 25922) | Minimum Inhibitory Concentration (MIC) (C. albicans ATCC 38247)

Cn1cc(NC(=O)c2ccc3nc(-c4cc(NC(=O)c5sccc5Cl)cn4C)[nH]c3c2)cc1C(=O)NCCN1CCOCC1 [Compound I-2]
>32 µg/mL: Minimum Inhibitory Concentration (MIC) (E. coli ATCC 25922) | Minimum Inhibitory Concentration (MIC) (C. albicans ATCC 38247)
+++ (MIC ≦4): Minimum Inhibitory Concentration (MIC) (S. aureus ATCC 13709) | Minimum Inhibitoty Concentration (MIC) (E. faecium ATCC 51559) | Minimum Inhibitory Concentration (MIC) (S. pneumoniae ATCC 49619) | Minimum Inhibitory Concentration (MIC) (E. faecalis ATCC 29212) | Minimum Inhibitoty Concentration (MIC) (S. epidermis ATCC 12228) | Minimum Inhibitoty Concentration (MIC) (S. aureus ATCC 27660) | Minimum Inhibitoty Concentration (MIC) (S. pneumoniae ATCC 51422) | Minimum Inhibitoty Concentration (MIC) (S. aureus ATCC 33591) | Minimum Inhibitory Concentration (MIC) (B. cereus ATCC 11778)

Cn1cc(NC(=O)c2sccc2Cl)cc1C(=O)Nc1cc(-c2nc3ccc(C(=O)NCCN4CCOCC4)cc3[nH]2)n(C)c1 [Compound I-3]
>32 µg/mL: Minimum Inhibitory Concentration (MIC) (C. albicans ATCC 38247)
+++ (MIC ≦4): Minimum Inhibitory Concentration (MIC) (S. aureus ATCC 13709) | Minimum Inhibitoty Concentration (MIC) (E. faecium ATCC 51559) | Minimum Inhibitory Concentration (MIC) (E. coli ATCC 25922) | Minimum Inhibitory Concentration (MIC) (S. pneumoniae ATCC 49619) | Minimum Inhibitory Concentration (MIC) (E. faecalis ATCC 29212) | Minimum Inhibitoty Concentration (MIC) (S. epidermis ATCC 12228) | Minimum Inhibitoty Concentration (MIC) (S. aureus ATCC 27660) | Minimum Inhibitoty Concentration (MIC) (S. pneumoniae ATCC 51422) | Minimum Inhibitory Concentration (MIC) (B. cereus ATCC 11778)

Cn1cc(NC(=O)c2cc(NC(=O)c3ccc4nc(-c5sccc5Cl)[nH]c4c3)cn2C)cc1C(=O)NCCN1CCOCC1 [Compound I-4]
>32 µg/mL: Minimum Inhibitory Concentration (MIC) (E. coli ATCC 25922) | Minimum Inhibitory Concentration (MIC) (E. faecalis ATCC 29212) | Minimum Inhibitory Concentration (MIC) (B. cereus ATCC 11778) | Minimum Inhibitory Concentration (MIC) (C. albicans ATCC 38247)
+++ (MIC ≦4): Minimum Inhibitory Concentration (MIC) (S. pneumoniae ATCC 49619)
+ (MIC from 12 to 32, inclusive): Minimum Inhibitory Concentration (MIC) (S. aureus ATCC 29213)

Cn1cc(NC(=O)c2cc(NC(=O)c3ccc4nc(-c5sc6ccccc6c5Cl)[nH]c4c3)cn2C)cc1C(=O)NCCN1CCOCC1 [Compound I-5]
>32 µg/mL: Minimum Inhibitory Concentration (MIC) (E. coli ATCC 25922) | Minimum Inhibitory Concentration (MIC) (S. pneumoniae ATCC 49619) | Minimum Inhibitory Concentration (MIC) (S. aureus ATCC 29213) | Minimum Inhibitory Concentration (MIC) (E. faecalis ATCC 29212) | Minimum Inhibitory Concentration (MIC) (B. cereus ATCC 11778) | Minimum Inhibitory Concentration (MIC) (C. albicans ATCC 38247)

CN(C)CCCNC(=O)CCNC(=O)c1cc(NC(=O)c2cc(NC(=O)CCNC(=O)c3cc(NC(=O)c4ccc5nc(-c6cc(Br)c(Br)s6)[nH]c5c4)cn3C)cn2C)cn1C [Compound I-6]
>32 µg/mL: Minimum Inhibitory Concentration (MIC) (E. coli ATCC 25922) | Minimum Inhibitory Concentration (MIC) (S. pneumoniae ATCC 49619) | Minimum Inhibitory Concentration (MIC) (S. aureus ATCC 29213) | Minimum Inhibitory Concentration (MIC) (E. faecalis ATCC 29212) | Minimum Inhibitory Concentration (MIC) (B. cereus ATCC 11778) | Minimum Inhibitory Concentration (MIC) (C. albicans ATCC 38247)

CN(C)CCCNC(=O)CCNC(=O)c1cc(NC(=O)c2cc(NC(=O)c3cc(NC(=O)c4nc(NC(=O)CCCNC(=O)c5cc(NC(=O)c6cc(NC(=O)c7ccc8nc(-c9nsc(Cl)c9Cl)[nH]c8c7)cn6C)cn5C)cn4C)cn3C)cn2C)cn1C [Compound I-9]
1e+09 M⁻¹: Association Constant, Ka (DNA sequence AATACT)
<1e+08 M⁻¹: Association Constant, Ka (DNA sequence ACTAGT)
1e+11 M⁻¹: Association Constant, Ka (DNA sequence AGTACT)
5e+09 M⁻¹: Association Constant, Ka (DNA sequence ATTACT) | Association Constant, Ka (DNA sequence ACTACT)
